Molecules are shown by their SMILES. Bounds are passed on as bounds.

Data set [1] in a line: Stability in cynomolgus monkey plasma assessed as unchanged parent compound at 168 to 174 MBq, iv after 45 mins by RP-HPLC analysis. The format is ADME, organism-based, Macaca fascicularis. To be noted: read-out: Stability.
Data set [2] is described as follows: Stability in cynomolgus monkey plasma assessed as unchanged parent compound at 168 to 174 MBq, iv after 120 mins by RP-HPLC analysis. The format is ADME, organism-based, Macaca fascicularis. To be noted: read-out: Stability.
For data set [3], the system named is Thalamus. The data set can be described thus: Drug uptake in cynomolgus monkey thalamus at 168 to 174 MBq, iv after 60 mins by PET analysis in presence of L-deprenyl. The format is ADME, organism-based, Macaca fascicularis. To be noted: in vivo, 1 h.
A short description of data set [4]: Drug uptake in cynomolgus monkey striatum at 168 to 174 MBq, iv after 60 mins by PET analysis in presence of L-deprenyl. The format is ADME, organism-based, Macaca fascicularis. To be noted: in vivo, 1 h.
A short description of data set [5]: Drug uptake in cynomolgus monkey cerebellum at 168 to 174 MBq, iv after 60 mins by PET analysis. The format is ADME, organism-based, Macaca fascicularis. The settings on record: in vivo, 1 h.
Data set [6] in a line: Drug uptake in cynomolgus monkey striatum at 168 to 174 MBq, iv after 60 mins by PET analysis. The format is ADME, organism-based, Macaca fascicularis. To be noted: in vivo, 1 h.
Data set [7] in a line: Drug uptake in cynomolgus monkey cortex at 168 to 174 MBq, iv after 60 mins by PET analysis in presence of L-deprenyl. The format is ADME, organism-based, Macaca fascicularis. The settings on record: in vivo, 1 h.
Data set [8] has as its system Thalamus. The data set can be described thus: Drug uptake in cynomolgus monkey thalamus at 168 to 174 MBq, iv after 60 mins by PET analysis. The format is ADME, organism-based, Macaca fascicularis. To be noted: in vivo, 1 h.
Data set [9] in a line: Stability in cynomolgus monkey plasma assessed as unchanged parent compound at 168 to 174 MBq, iv after 15 mins by RP-HPLC analysis. The format is ADME, organism-based, Macaca fascicularis. The settings on record: read-out: Stability.
Data set [10] concerns Cynomolgus monkey. The data set is described as follows: Drug metabolism in cynomolgus monkey plasma assessed as radiometabolite M2 retention time at 168 to 174 MBq, iv by RP-HPLC analysis. The format is ADME, organism-based, Macaca fascicularis.
Data set [11] is described as follows: Drug uptake in cynomolgus monkey cerebellum at 168 to 174 MBq, iv after 60 mins by PET analysis in presence of L-deprenyl. The format is ADME, organism-based, Macaca fascicularis. The settings on record: in vivo, 1 h.
Data set [12] can be described thus: Drug uptake in cynomolgus monkey cortex at 168 to 174 MBq, iv after 60 mins by PET analysis. The settings on record: in vivo, 1 h. The format is ADME, organism-based, Macaca fascicularis.
The subject of data set [13] is Cynomolgus monkey. The data set can be described thus: Drug metabolism in cynomolgus monkey plasma assessed as radiometabolite M1 retention time at 168 to 174 MBq, iv RP-HPLC analysis. The format is ADME, organism-based, Macaca fascicularis.
Data set [14] relates to Brain. The data set can be described thus: Drug uptake in cynomolgus monkey brain at 168 to 174 MBq, iv after 4 mins by PET analysis. The format is ADME, organism-based, Macaca fascicularis. To be noted: in vivo.
Data set [15] in a line: Drug recovery in cynomolgus monkey plasma at 168 to 174 MBq, iv by RP-HPLC analysis in presence of acetonitrile. The format is ADME, organism-based, Macaca fascicularis. To be noted: read-out: Drug recovery.
Data set [16] can be described thus: Chemical stability of the compound in PBS at pH 7.4 after 180 mins. The format is physicochemical. The settings on record: read-out: Stability.
The species named for data set [17] is Homo sapiens. The data set is described as follows: Selectivity ratio of IC50 for recombinant human MAO-B to IC50 for recombinant human MAO-A. To be noted: tested as the 2H-labelled form.
Data set [18] has as its target T1, Amine oxidase [flavin-containing] A (Homo sapiens, UniProt P21397).
T1 sequence (P21397 whole entry): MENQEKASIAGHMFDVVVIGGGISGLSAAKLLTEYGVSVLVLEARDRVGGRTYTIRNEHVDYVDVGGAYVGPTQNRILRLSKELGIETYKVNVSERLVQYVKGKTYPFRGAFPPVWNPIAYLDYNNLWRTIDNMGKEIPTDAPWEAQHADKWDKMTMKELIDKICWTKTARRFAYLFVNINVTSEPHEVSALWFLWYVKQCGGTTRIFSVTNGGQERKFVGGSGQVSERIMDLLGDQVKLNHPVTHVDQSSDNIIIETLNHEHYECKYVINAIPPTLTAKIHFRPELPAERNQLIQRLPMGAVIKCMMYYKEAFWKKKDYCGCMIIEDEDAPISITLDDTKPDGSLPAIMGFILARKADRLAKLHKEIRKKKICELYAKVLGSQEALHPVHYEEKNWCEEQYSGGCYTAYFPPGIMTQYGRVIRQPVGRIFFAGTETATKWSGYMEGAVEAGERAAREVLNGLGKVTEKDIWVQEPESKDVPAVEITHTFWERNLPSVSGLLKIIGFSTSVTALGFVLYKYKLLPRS
The data set is described as follows: Inhibition of recombinant human MAO-A expressed in insect cells using kynuramine as substrate assessed as formation of 4-hydroxyquinoline measured every 5 mins for 30 mins.

The target in data set [19] is T2, Amine oxidase [flavin-containing] B (Homo sapiens, UniProt P27338).
T2 sequence (P27338 whole entry): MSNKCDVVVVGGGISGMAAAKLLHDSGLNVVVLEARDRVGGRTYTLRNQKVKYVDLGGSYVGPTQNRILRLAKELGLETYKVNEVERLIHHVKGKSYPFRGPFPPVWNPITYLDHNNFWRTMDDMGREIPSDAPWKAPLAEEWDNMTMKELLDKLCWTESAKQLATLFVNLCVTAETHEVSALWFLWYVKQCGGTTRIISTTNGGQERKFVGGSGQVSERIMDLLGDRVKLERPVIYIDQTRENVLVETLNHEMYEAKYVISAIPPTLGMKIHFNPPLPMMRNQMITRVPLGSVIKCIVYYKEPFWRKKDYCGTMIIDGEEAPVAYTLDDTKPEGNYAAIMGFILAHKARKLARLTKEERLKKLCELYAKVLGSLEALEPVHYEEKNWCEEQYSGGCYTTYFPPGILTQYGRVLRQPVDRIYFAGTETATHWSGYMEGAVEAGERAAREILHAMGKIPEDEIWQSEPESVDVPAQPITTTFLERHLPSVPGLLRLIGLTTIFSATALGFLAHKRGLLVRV
The data set can be described thus: Inhibition of recombinant human MAO-B expressed in insect cells using kynuramine as substrate assessed as formation of 4-hydroxyquinoline measured every 5 mins for 30 mins. The format is cell-based.

`C#CCN[C@H]1c2ccccc2C[C@@H]1[18F]` [[18F]FLUORORASAGILINE]: the remaining at 0.75 h in data set [1] amounted to 55%. For the same compound, the remaining at 2 h in data set [2] turned out to be 35%.

Turning to `[2H]C([2H])(C#C)N[C@@H]1c2ccccc2C[C@H]1[18F]` [[18F]FLUORORASAGILINE-D2], the SUV amounted to 0.78% in data set [3]; 0.77% in data set [4]; 0.99% in [5]; 1.38% in data set [6]; 0.66% in data set [7]; 1.46% in data set [8]. Besides, the SUV stood at 0.54% in data set [11], 1.1% in data set [12] and 270% in [14]. In addition, the remaining at 0.75 h in [1] stood at 50%. Also, the remaining at 0.25 h in data set [9] came to 75%. The Retention_time in data set [10] was determined as 6.7 min; in data set [13], 2.9 min. For the same compound, the remaining at 2 h in [2] was 20%. Further, the recovery in data set [15] is more than 95%. The remaining at 3 h in [16] was more than 97%.

`C#CCN[C@@H]1c2ccccc2C[C@H]1F`: in data set [17], the Ratio IC50 stood at 19.

Regarding `[2H]C([2H])(C#C)N[C@@H]1c2ccccc2C[C@H]1F`, the IC50 was found to be 9900 nM in [18] and 173 nM in [19].

On to `C#CCN[C@H]1c2ccccc2C[C@@H]1F` [FLUORORASAGILINE], for which, in data set [19], the IC50 turned out to be 27 nM.

A word on the IC50: it is the concentration needed to halve the response being measured.

(Values after ChEMBL document CHEMBL2440022, “Development of a novel fluorine-18 labeled deuterated fluororasagiline ([(18)F]fluororasagiline-D2) radioligand for PET studies of monoamino oxidase B (MAO-B)” (Bioorg Med Chem, 2013).)
